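Growth conditions: 96-well plates. Treatment: test compound, 48 hours, 5 concentrations. Analysis: linear interpolation between bracketing concentrations; unreached endpoints set to highest concentration. The concentration for 50% growth inhibition is given as GI50. TGI: total growth inhibition.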
Columns and labels:
Assay in all cases: NCI tumour cell line growth inhibition, 48 h
CAKI-1 renal = test system: CAKI-1 renal
M14 melanoma = test system: M14 melanoma
MCF7 breast = test system: MCF7 breast
MDA-MB-231 breast = test system: MDA-MB-231 breast
PC-3 prostate = test system: PC-3 prostate
SF-539 CNS = test system: SF-539 CNS

SMILES | TGI (CAKI-1 renal) [µM] | TGI (M14 melanoma) [µM] | TGI (MCF7 breast) [µM] | TGI (MDA-MB-231 breast) [µM] | TGI (PC-3 prostate) [µM] | TGI (SF-539 CNS) [µM] | GI50 (CAKI-1 renal) [µM]
C=C(C(=O)O)[C@@H]1C[C@@H]2O[C@H]1CC(C)=CCC/C(C)=C/CC[C@@]2(C)O | > 100 | > 100 | > 100 | > 100 | > 100 | > 100 | –
CC(=O)O[C@H]1[C@@H](N2CCN(C)CC2)C[C@H]2[C@@H]3CC=C4C[C@@H](N5CCCC5)CC[C@]4(C)[C@H]3CC[C@@]21C | > 100 | 34.5 | > 100 | > 100 | > 100 | 29.3 | –
CCCCP(CCCC)(CCCC)=C(C(=O)OC)C(C(=O)OC)=C1SC(C(=O)OC)=C(C(=O)OC)S1 | – | 30.2 | 30.9 | 35.7 | 51 | – | –
Cc1cc(C#N)c(Nc2c(C)cccc2[N+](=O)[O-])s1 | > 100 | > 100 | – | 79.4 | 54.4 | > 100 | –
CC1(C)C2CCC1(CC(=O)O)C(Cl)C2 (centres undefined) | > 100 | > 100 | > 100 | > 100 | > 100 | > 100 | –
O=C(O)c1cc(Sc2ccc([N+](=O)[O-])c(C(=O)O)c2)ccc1[N+](=O)[O-] | > 100 | > 100 | > 100 | > 100 | > 100 | > 100 | > 100
CN(C(=O)c1cccs1)C(=S)N1CCN(c2ccccc2)CC1 | – | > 100 | > 100 | > 100 | – | – | –
Cc1cccc(NC(=S)N/N=C(/c2ccccc2)c2ccccn2)c1 | 12.7 | 2.58 | 0.663 | 6.73 | 18.3 | 12.8 | –
COC(=O)CCC(=O)c1ccc2c(c1)CC1(C2)Cc2ccc3c(c2C1)CCCC3=O (centres undefined) | 78.1 | > 57 | 69.9 | > 100 | > 79.9 | 42.6 | –
CN1CCN(c2ccc(-n3cc(C(=O)O)c(=O)c4cc(F)c(N5CCN(C)CC5)cc43)nc2)CC1 | > 100 | > 100 | > 100 | > 100 | > 100 | > 100 | –
CC1(C)O[C@@H]2[C@@H]3OC(=O)C[C@@H]3[C@@H](COCc3ccccc3)[C@@H]2O1 | > 100 | > 100 | > 100 | > 100 | > 100 | > 100 | –
CCN(CC)c1nc(N(C)C)c2cc(OC)ccc2n1 | > 100 | > 100 | > 100 | > 100 | > 100 | 55.5 | –
Cc1nc2c(ncn2CCO)c(=O)[nH]1 | > 100 | > 100 | > 100 | > 100 | > 100 | > 100 | –
O=C(O)C(F)(OC(F)(F)C(F)(OC(F)(F)C(F)(F)C(F)(F)F)C(F)(F)F)C(F)(F)F (centres undefined) | > 100 | > 100 | > 100 | > 100 | > 100 | > 100 | –
c1ccc2c(c1)C(=Nc1ccc(N=C3c4ccccc4-c4ccccc43)cc1)c1ccccc1-2 | > 100 | > 100 | > 100 | > 100 | > 100 | – | –
CC[C@@]1(O)C(=O)OCc2c1cc1n(c2=O)Cc2c-1nc1ccccc1c2/C=N\NC(=O)C(C)N (some centres undefined) | 2.57 | 5.05 | > 66.9 | > 100 | > 100 | < 0.0282 | –
CC1Cc2cc(O)ccc2C2[C@@H]1C1CC[C@H](O)[C@@]1(C)C[C@@H]2O[N+](=O)[O-] (some centres undefined) | 73.6 | 64.1 | 25.3 | 85.8 | > 100 | 18.9 | –
N#CC(c1cc(Cl)ncn1)c1nc2ccccc2s1 (centres undefined) | 82.1 | 33.6 | – | 60.4 | – | 50.5 | –
CCN(CC)C1=Nc2ccccc2-n2c(C)cnc2C1 | > 100 | > 100 | > 100 | > 100 | > 100 | > 100 | –
CC(C)(C)NC1C2CCC(C)(C1O)C2(C)C (centres undefined) | > 100 | > 100 | 14.7 | > 100 | > 100 | > 100 | –

SMILES | TGI (CAKI-1 renal) [µM] | TGI (M14 melanoma) [µM] | TGI (MCF7 breast) [µM] | TGI (MDA-MB-231 breast) [µM] | TGI (PC-3 prostate) [µM] | TGI (SF-539 CNS) [µM] | GI50 (CAKI-1 renal) [µM]
CCCCCC(/C=N/N)C(O)(C(F)(F)F)C(F)(F)F (centres undefined) | 6.02 | > 10 | > 10 | > 10 | 6.82 | > 10 | –
CN(C)/C=N/S(=O)(=O)c1nn2c(C=O)c(-c3ccc(-c4ccc([N+](=O)[O-])cc4)o3)nc2s1 | 4.06 | – | > 32.6 | 20 | 14.3 | 11.8 | –
O=C1OC(c2ccccc2)N/C1=C\c1ccc2c(c1)OCO2 (centres undefined) | > 100 | > 100 | > 100 | > 100 | > 100 | > 31.6 | –
C[C@@H]1OC(=O)/C(=C\N(C)C)[C@H]2CC(=O)N(CCc3cn(S(=O)(=O)C(F)(F)F)c4ccccc34)C[C@H]12 | > 100 | > 100 | > 100 | > 100 | > 100 | > 100 | –
COc1cc(OC)nc(Nc2c(C#N)c3nc4ccccc4n3c3ccccc23)n1 | > 100 | > 100 | > 100 | – | > 100 | 35.1 | –
COC1(C)C=NCC(C)(C)NC(=O)C(C)(OC)C=NCC(C)(C)NC1=O (centres undefined) | > 10 | > 10 | > 10 | > 10 | > 10 | > 10 | –
Cc1c2cccc-2c(OCCO)cc2c1[nH]c1ccccc12 | 3.67 | 4.36 | 19.4 | 6.56 | 7.89 | 3.5 | –
Cc1n[nH]c(=O)n1N1C(=O)c2ccccc2C1=O | > 100 | > 100 | > 100 | > 100 | > 100 | > 100 | –
CCCCOC(=O)C1CN2C(=NC1(C(F)(F)F)C(F)(F)F)Sc1ccccc12 (centres undefined) | > 100 | > 100 | > 100 | > 100 | 42.4 | > 100 | –
CCNCCNC(=O)c1ccc(Br)cc1 | > 100 | > 100 | > 100 | – | > 100 | > 100 | –
CCCCCCCCCCCCP(=O)(O)OCC(N)C(=O)O (centres undefined) | > 100 | > 100 | > 100 | 65.3 | 36.9 | 47.4 | –
O=C1NN(c2ccccc2)C(=O)C2C3c4ccccc4C(c4ccccc43)C12 (centres undefined) | > 100 | > 100 | > 100 | > 100 | > 100 | > 100 | –
CC1(C)OC(=S)N(c2ccccc2)C12C=Cc1cc3ccccc3cc1O2 (centres undefined) | > 100 | > 100 | > 100 | > 100 | > 100 | – | –
C[C@]12CCC(=O)C=C1CC[C@@H]1C2CC[C@]2(C)Nc3c(ncn3-c3ccc(F)cc3)CC12 (some centres undefined) | > 100 | > 100 | 74 | > 100 | > 100 | 34.3 | –
CC(=O)OCc1cn(S(=O)(=O)c2ccc(C)cc2)cn1 | > 100 | > 100 | > 100 | > 100 | > 100 | > 100 | –
Cc1cc2[nH]c3c(C#N)c(-c4ccccc4)c(CN4CCOCC4)c(=O)n3c2cc1C | > 100 | > 100 | > 100 | > 100 | > 100 | > 100 | –
O=C1O[C@H]2[C@@H]3OC(=O)c4cc(O)c(O)c(O)c4-c4c(cc(O)c(O)c4O)C(=O)OC[C@H]2O[C@@H](OC(=O)c2cc(O)c(O)c(O)c2)[C@@H]3OC(=O)c2cc(O)c(O)c3c2[C@@H]2C1=CC(=O)C(O)(O)C2(O)O3 (some centres undefined) | 27.5 | > 100 | 50.6 | 40.2 | > 100 | – | –
CCc1n[nH]c(=O)n1NC(=O)/C=C\C(=O)O | > 100 | > 100 | > 100 | > 100 | > 100 | > 100 | –
NC(CCCCNC(=O)C(Cc1ccccc1)NC(=O)OCc1ccccc1)C(=O)NC(CCCCNC(=O)C(Cc1ccccc1)NC(=O)OCc1ccccc1)C(=O)NC(CCCCNC(=O)C(Cc1ccccc1)NC(=O)OCc1ccccc1)C(=O)NC(CCCCNC(=O)C(Cc1ccccc1)NC(=O)OCc1ccccc1)C(=O)NC(CCCCNC(=O)C(Cc1ccccc1)NC(=O)OCc1ccccc1)C(=O)NC(CCCCNC(=O)C(Cc1ccccc1)NC(=O)OCc1ccccc1)C(=O)O (centres undefined) | > 100 | > 100 | > 100 | > 100 | > 100 | – | –
Cc1ccc(C)c(NC(=O)C(Cc2c[nH]c3ccccc23)NC(=O)OCc2ccccc2)c1 (centres undefined) | 56.7 | 34.7 | > 100 | 47.4 | 28.6 | 21.5 | –

SMILES | TGI (CAKI-1 renal) [µM] | TGI (M14 melanoma) [µM] | TGI (MCF7 breast) [µM] | TGI (MDA-MB-231 breast) [µM] | TGI (PC-3 prostate) [µM] | TGI (SF-539 CNS) [µM] | GI50 (CAKI-1 renal) [µM]
[N-]=[N+]=NC1=C(c2ccccc2)C(=O)c2cccc3cccc1c23 | > 100 | > 100 | > 100 | – | > 100 | 91.1 | –
CCOC(=O)c1cc(-c2ccc(Cl)cc2)c([N+](=O)[O-])n1C | – | > 10 | – | 5.8 | – | > 10 | –
Cc1cc(-c2nc3cc(F)c(F)cc3s2)ccc1N | > 100 | > 100 | > 100 | > 100 | > 100 | – | –
COC(=O)C1CCC(=O)N1C(c1ccc2c(c1)OCO2)c1ccc2c(c1)OCO2 (centres undefined) | > 100 | > 100 | > 100 | > 100 | > 100 | > 100 | –
COC(=O)[C@@H]1C[C@]2(CC=C(C)C)c3ccccc3N(S(=O)(=O)c3ccccc3)[C@@H]2N1C(=O)OC | > 100 | – | 48.5 | > 100 | > 100 | 86.3 | –
CCOP(C)(=O)C(Nc1ccc(F)cc1)c1ccc(F)cc1 (centres undefined) | > 100 | > 100 | – | > 100 | > 100 | > 100 | –
CCNc1ncnc2n[nH]nc12 | > 100 | > 100 | > 100 | > 100 | > 100 | > 100 | –
C/C(=N\Nc1nc2ccccc2o1)c1ccncn1 | 42.6 | – | > 43.8 | 97.1 | 36.6 | > 100 | –
O=C(/C(=C/c1cccs1)c1ccccc1)c1ccccc1 | > 100 | > 100 | > 100 | > 100 | > 100 | 87.6 | –
CCCCCCCC/C=C/CCCCCCCC1CC(O)C(=O)O1 (centres undefined) | – | > 100 | > 100 | > 100 | > 100 | – | –
Cc1nc(C)c(N2CCN(C#N)CC2)c(=O)[nH]1 | > 100 | > 100 | > 100 | > 100 | > 100 | > 100 | –
OCSc1nn(CO)c(=S)s1 | > 100 | 38.2 | 35.9 | 68.1 | 59.6 | 56.8 | –
CC(=O)OC1COC(Nn2c(=O)[nH]c3ccccc3c2=O)C(OC(C)=O)C1OC(C)=O (centres undefined) | > 100 | > 100 | > 100 | > 100 | > 100 | > 100 | –
COc1c(O)cc(C(=O)O[C@@H]2Cc3c(O)cc(O)cc3O[C@@H]2c2cc(O)c(O)c(O)c2)cc1O | > 100 | > 100 | 42 | – | > 100 | – | –
O=C1C[C@H]2[C@H](c3ccc(Br)cc3)[C@H]3C(=O)c4ccccc4NC(=O)[C@@H]3[C@@]2(O)c2ccccc2N1 | 28.3 | 29 | 77.2 | 36.1 | > 100 | 54.7 | –
CCOP(=O)(OCC)/C(C#N)=C/c1c(C)[nH]c2ccccc12 | > 100 | > 100 | > 100 | > 100 | > 100 | > 100 | –
Cc1nn(C)c2c1C(=O)N(C)CC(=O)N2C | > 100 | > 100 | > 100 | – | > 100 | > 100 | –
COc1cc(/C=C(\C#N)c2ccccn2)cc(Br)c1O | > 100 | > 100 | > 100 | – | > 100 | > 100 | –
CCOC(=O)C1(Cc2ccccc2)Cc2ccccc2C1=O (centres undefined) | – | 40.9 | > 100 | > 100 | > 100 | 96.2 | –
CC(=O)Nc1ccc(-c2nc3ccccc3s2)cc1O | > 100 | > 100 | – | > 100 | > 100 | – | –
